Literature values in patent publication US20180271826A1, “DRY POWDERS OF CANNABINOIDS AND METHODS FOR PREPARING DRY POWDERS” (COLORADO CAN LLC, priority 2017, published 2018).

Key:
[1] = cannabis resin, 4 years, 4° C. in the dark (Trofin 2012)
[2] = burning of cannabis cigarettes (Elzinga 2015)
[3] = oral ingestion (Ohlsson 1980)
[4] = transdermal patch (Stinchcomb 2004)
[5] = plant material, room temperature (20° C.) near a source of light, a little under two years (Fairbarn 1976)

SMILES	original content degraded [1]	theoretically present amount recovered in total smoke and remaining ash [2]	time of peak THC concentrations after dosing [3]	peak THC concentration [4]	time of peak THC concentration [4]	original THC content remaining [5]
C=C(C)[C@@H]1CCC(C)=C[C@H]1c1c(O)cc(CCCCC)cc1O [CBD, cannabidiol]	55.75%	38.4%	–	–	–	–
CCCCCc1cc(O)c2c(c1)OC(C)(C)[C@@H]1CCC(C)=C[C@@H]21 [THC, Δ9-tetrahydrocannabinol]	95.77%	36.9%	1 to 5 h	4.4 ng/mL	1.4 h	37%
